Laboratory results reported in PMC11928319 (Nature Plants, 2025).
Where no end group is shown, it is not given here.

Legend:
[1] = tested on: filter-sterile supernatant of Rhodanobacter R179 (secreted peptidase(s)); assay: Peptide quantification by mass spectrometry after incubation in cell-free supernatant of Rhodanobacter R179; assay type: in vitro ADME; conditions: for peptide detected by mass spectrometry after incubation in supernatant of the R179 dssAB mutant: filter-sterile supernatant of dssAB mutant cultivated in XVM2 (OD600 = 0.4); for peptide detected by mass spectrometry after incubation in supernatant of the R179 dssAB mutant / peptide detected by mass spectrometry after incubation in supernatant of wild-type R179: LC-MS MS1 peak area; for peptide detected by mass spectrometry after incubation in supernatant of wild-type R179: filter-sterile supernatant of wild-type R179 cultivated in XVM2 minimal medium (OD600 = 0.4), light chamber, n = 3 culture supernatants; for Log10(total_area_MS1) / percent_rel_axenic: incubation 1h; for Log10(total_area_MS1): MS1 precursor area; for percent_rel_axenic: peptide relative to axenic; for Total_area MS1 of identified AtPep1 cleavage product (acetylated […]): 1 µM AtPep1, LC-MS [M+2H]; for Total_area MS1 (intact flg22): 1 µM, LC-MS [M+2H]
Experimental: (§1) Elicitors were also supplemented into the medium prior to solidification at a final concentration of 1 µM. The flg22 ([…]) and AtPep1 ([…]) peptides were synthesized by EZbiolab. elf18^R179 (Ac-[…]) and elf18 (Ac-[…]) were synthesized by GenScript and EZbiolab, respectively. For inoculation with the bacterial supernatant, bacteria were cultivated overnight in XVM2 minimal medium (20 mM NaCl, 10 mM (NH4)2SO4, 5 mM MgSO4, 1 mM CaCl2, 0.16 mM KH2PO4, 0.32 mM K2HPO4, 0.01 mM FeSO4, 10 mM fructose, 10 mM sucrose, 0.03% Casamino acids, pH 6.7)[76] to a final concentration of OD600 = 0.4. Bacteria were pelleted by centrifugation (11,600 g, 2 min), and the supernatant was sterile-filtered using filter units with MF-Millipore membrane (0.22 µm; Millex). The supernatant was incubated in boiling water for 30 min for heat treatment. Then, 25 ml of 1× MS with 20 g l^−1 Bacto Agar was mixed with 25 ml of supernatant prior to medium solidification and poured into square petri dishes. Sterilized seeds were placed on solidified agar in square petri dishes and vertically incubated for 14 days.
(§2) Bacterial supernatants were prepared as described in ‘Agar-based cultivation of axenic plants and co-cultivation with bacteria, bacterial supernatants and elicitors’. Here, additionally, the peptides dRGF1 (DYSNPGHHP-Hyp-RHN) and PSY1 (D-Y(SO3H)-[…]-Hyp-Hyp-S) synthesized by Scilight Peptide were incubated for 1 h with 1 µM of peptides in a plant cultivation light chamber (day-light condition; see ‘Plant cultivation conditions’), and the samples were frozen at −20 °C until further processing. For the investigation of AtPep1 degradation, the AtPep1 peptide was first modified by acetylation (six to seven times). To this end, 100-µl aliquots of peptides were treated with 10 µl of NHS acetate solution (1 M NHS acetate in 50% ACN/PBS) and incubated for 30 min with shaking. The reaction was quenched by the addition of 100 µl of 100 mM Tris-HCl (pH 8.5) and incubated for 10 min. For comparison of the non-acetylated peptides with the above-described modified AtPep1 peptides, aliquots of the non-acetylated peptides were processed as described above, but without the modifying NHS reaction. To this end, 100-µl aliquots of the sample were mixed with 100 µl of PBS buffer (137 mM NaCl, 2.7 mM KCl, 10 mM Na2HPO4, 1.8 mM KH2PO4; pH 7.4). The samples were then further diluted with 100 µl of 100 mM Tris-HCl (pH 8.5) and incubated for 10 min. All samples were acidified with 5 µl of TFA and desalted using StageTips with C18 Empore disk membranes (3M)[109]. The samples were dried in a vacuum evaporator and dissolved in 10 µl of 2% ACN (0.1% TFA for analysis).
(§3) The samples were analysed using an EASY-nLC 1200 (Thermo Fisher) coupled to a QExactive Plus mass spectrometer (Thermo Fisher). Peptides were separated on 16-cm frit-less silica emitters (New Objective, 75 µm inner diameter), packed in-house with reversed-phase ReproSil-Pur C18 AQ 1.9 µm resin (Dr. Maisch). Peptides were loaded on the column and eluted for 50 min using a segmented linear gradient of 5% to 95% solvent B (0 min, 5% B; 0–5 min, 15% B; 5–35 min, 50% B; 35–45 min, 95% B; 45–50 min, 95% B) (solvent A: 0% ACN, 0.1% FA; solvent B: 80% ACN, 0.1% FA) at a flow rate of 300 nl min^−1. Mass spectra were acquired in data-dependent acquisition mode with a TOP10 method. Mass spectrometry spectra were acquired in the Orbitrap analyser with a mass range of 300–1,500 m/z at a resolution of 70,000 full width at half maximum (FWHM) and a target value of 3 × 10^6 ions. Precursors were selected with an isolation window of 1.3 m/z. Higher-energy collision dissociation (HCD) fragmentation was performed at a normalized collision energy of 25. Tandem mass spectrometry (MS/MS) spectra were acquired with a target value of 5 × 10^5 ions at a resolution of 17,500 FWHM, a maximum injection time of 85 ms and a fixed first mass of 100 m/z. […]

[2] = as above; assay type: in vitro ADME; conditions: axenic XVM2 medium, 1h, 1 µM AtPep1, NHS-acetate modified, LC-MS [M+2H]
Experimental: as §1, §2, §3

[3] = tested on: Arabidopsis wild type and efr mutant plants; assay: elf18-induced shoot growth inhibition, shoot weight; assay type: in vivo, Arabidopsis thaliana; conditions: Arabidopsis Col-0, 1 µM, 2 weeks
[4] = R179 dssAB mutant supernatant, XVM2 medium, replicate 1
[5] = R179 dssAB mutant supernatant, XVM2 medium, replicate 2
[6] = R179 dssAB mutant supernatant, XVM2 medium, replicate 3
[7] = R179 wt supernatant, XVM2 medium, replicate 1
[8] = R179 wt supernatant, XVM2 medium, replicate 2
[9] = R179 wt supernatant, XVM2 medium, replicate 3
[10] = axenic XVM2 medium control, replicate 1
[11] = axenic XVM2 medium control, replicate 2
[12] = axenic XVM2 medium control, replicate 3
[13] = supernatant of wt R179 in XVM2 (OD600 = 0.4), 1h, replicate 1
[14] = supernatant of wt R179 in XVM2 (OD600 = 0.4), 1h, replicate 2
[15] = supernatant of wt R179 in XVM2 (OD600 = 0.4), 1h, replicate 3

Substance	peptide detected by mass spectrometry after incubation in supernatant of the R179 dssAB mutant ([1]; 1 µM peptide, 1 h, n = 3)	peptide detected by mass spectrometry after incubation in supernatant of wild-type R179 ([1]; 1 µM peptide, 1 h)	Log10(total_area_MS1) [1, 4]	Log10(total_area_MS1) [1, 5]	Log10(total_area_MS1) [1, 6]	percent_rel_axenic [1, 4] [%]	percent_rel_axenic [1, 5] [%]	percent_rel_axenic [1, 6] [%]	Log10(total_area_MS1) [1, 8]	Log10(total_area_MS1) [1, 9]	percent_rel_axenic [1, 7] [%]	percent_rel_axenic [1, 8] [%]	percent_rel_axenic [1, 9] [%]	Log10(total_area_MS1) [1, 10]	Log10(total_area_MS1) [1, 11]	Log10(total_area_MS1) [1, 12]	percent_rel_axenic [1, 10] [%]	percent_rel_axenic [1, 11] [%]	percent_rel_axenic [1, 12] [%]	further results
ATKVKAKQRGKEKVSSGRPGQHN [AtPep1]	depleted	depleted	6.423	6.556	5.255	0.0095	0.0129	0.0006	5.86	6.66	0.086	0.0026	0.0164	10.4254	10.4615	10.4458	95.7106	103.993	100.296	traces of AtPep1 detected after incubation in R179 supernatants ([1]; 1 µM peptide, 1 h, R179 supernatant in XVM2, AtPep1 acetylated before LC-MS): < 0.01%; Log10(total_area_MS1) [1, 7]: 7.379; Total_area MS1 of identified AtPep1 cleavage product (acetylated […]) ([1]; supernatant of R179 dssAB mutant in XVM2 (OD600 = 0.4), 1h, replicate 1): 2.38E+09; Total_area MS1 of identified AtPep1 cleavage product (acetylated […]) ([1]; supernatant of R179 dssAB mutant in XVM2 (OD600 = 0.4), 1h, replicate 2): 1.79E+09; Total_area MS1 of identified AtPep1 cleavage product (acetylated […]) ([1]; supernatant of R179 dssAB mutant in XVM2 (OD600 = 0.4), 1h, replicate 3): 2.15E+09; Total_area MS1 of identified AtPep1 cleavage product (acetylated […]) [1, 13]: 1.79E+09; Total_area MS1 of identified AtPep1 cleavage product (acetylated […]) [1, 14]: 1.66E+09; Total_area MS1 of identified AtPep1 cleavage product (acetylated […]) [1, 15]: 1.89E+09; Total_area MS1 of identified AtPep1 cleavage product (acetylated […]) ([2]; replicate 2): 0.00E+00; Total_area MS1 of identified AtPep1 cleavage product (acetylated […]) ([2]; replicate 3): 0.00E+00
Ac-SKEKFERTKPHVNVGTIG [elf18]	depleted	depleted	0	0	0	0	0	0	0	0	0	0	0	10.4989	10.552	10.527	93.8398	106.053	100.108	shoot growth (shoot weight) upon peptide treatment [3]: Shoot growth inhibition
QRLSTGSRINSAKDDAAGLQIA [flg22]	efficient and rapid (1 h) proteolytic degradation	efficient and rapid (1 h) proteolytic degradation	0	0	0	0	0	0	0	0	0	0	0		8.543	8.745		75.7327	120.41	peptide detected by mass spectrometry after incubation in heat-treated supernatant of wild-type R179 ([1]; 1 µM peptide, 1 h, supernatant boiled 30 min, XVM2, LC-MS MS1 peak area, n = 3): detected; Total_area MS1 (intact flg22) ([1]; axenic XVM2 medium, 1h, replicate 2): 3.04E+08; Total_area MS1 (intact flg22) ([1]; axenic XVM2 medium, 1h, replicate 3): 4.20E+08; Total_area MS1 (intact flg22) ([1]; heat-treated (HK-wt) supernatant of wt R179 in XVM2, 1h, replicate 1): 1.96E+09; Total_area MS1 (intact flg22) ([1]; heat-treated (HK-wt) supernatant of wt R179 in XVM2, 1h, replicate 2): 3.13E+09; Total_area MS1 (intact flg22) ([1]; heat-treated (HK-wt) supernatant of wt R179 in XVM2, 1h, replicate 3): 9.82E+08; Total_area MS1 (intact flg22) [1, 13]: 0.00E+00; Total_area MS1 (intact flg22) [1, 14]: 0.00E+00; Total_area MS1 (intact flg22) [1, 15]: 0.00E+00
